According to ChEMBL document CHEMBL5723379, “Affinity On-target Cellular Literature for EUbOPEN Chemogenomic Library” (2024):
pEC50, pIC50: −log10 of the molar value. One block for each compound: values may come before it.

Tests used:
[1] = target: Thyroid hormone receptor beta (Homo sapiens, UniProt P10828); assay: Affinity On-target Cellular interaction: (Reporter gene assay (HEK293T cells)) EUB0002355a THRB; assay type: functional, cell-based, HEK-293T; set-up: mode of action Antagonist, recommended concentration 3 uM
[2] = target: Monoacylglycerol lipase ABHD6 (Homo sapiens, UniProt Q9BV23)
[3] = target: T1, Nuclear receptor subfamily 1 group I member 2 (Homo sapiens, UniProt O75469); assay: Affinity On-target Cellular interaction: (Reporter gene assay (HEK293T cells)) EUB0002359a NR1I2; assay type: functional, cell-based, HEK-293T; set-up: mode of action Agonist, recommended concentration 1 uM
[4] = target: T2, Sodium-dependent neutral amino acid transporter B(0)AT1 (Homo sapiens, UniProt Q695T7); assay: Affinity On-target Cellular interaction: (Fluorescence imaging plate reader (FLIPR) membrane potential (FMP) assay, MDCK cells) EUB0002537a SLC6A19; assay type: functional, cell-based; set-up: mode of action Inhibitor, recommended concentration 1 uM
[5] = target: T2, Sodium-dependent neutral amino acid transporter B(0)AT1; assay: Affinity On-target Cellular interaction: (Stable isotope uptake assay, MDCK cells) EUB0002537a SLC6A19; assay type: functional, cell-based; set-up: mode of action Inhibitor, recommended concentration 1 uM
[6] = target: T3, Oxysterols receptor LXR-beta (Homo sapiens, UniProt P55055); assay: Affinity On-target Cellular interaction: (Reporter gene assay (HEK293T cells)) EUB0001167a NR1H2; assay type: functional, cell-based, HEK-293T; set-up: mode of action Agonist, recommended concentration 1 uM
T3 sequence (P55055 whole entry): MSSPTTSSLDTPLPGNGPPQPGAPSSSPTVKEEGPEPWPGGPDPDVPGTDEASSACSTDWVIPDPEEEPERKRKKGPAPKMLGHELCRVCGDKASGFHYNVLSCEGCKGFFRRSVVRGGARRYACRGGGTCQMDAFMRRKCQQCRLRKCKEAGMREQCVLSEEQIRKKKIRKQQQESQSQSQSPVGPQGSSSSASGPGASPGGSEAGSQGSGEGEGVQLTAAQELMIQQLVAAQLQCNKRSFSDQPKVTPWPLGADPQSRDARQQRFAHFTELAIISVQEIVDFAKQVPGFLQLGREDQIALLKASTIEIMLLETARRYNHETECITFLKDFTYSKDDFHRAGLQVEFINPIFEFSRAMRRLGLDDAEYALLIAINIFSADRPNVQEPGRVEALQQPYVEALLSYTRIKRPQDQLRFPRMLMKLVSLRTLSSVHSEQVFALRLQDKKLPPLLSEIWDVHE

[7] = target: T1, Nuclear receptor subfamily 1 group I member 2; assay: Affinity On-target Cellular interaction: (Reporter gene assay (HEK293T cells)) EUB0002358a NR1I2; assay type: functional, cell-based, HEK-293T; set-up: mode of action Agonist, recommended concentration 10 uM
[8] = target: Sodium- and chloride-dependent glycine transporter 1 (Homo sapiens, UniProt P48067); assay: Affinity On-target Cellular interaction: (Inhibition of radiolabelled [3H]glycine uptake in human SK-N-MC cells) EUB0002599a SLC6A9; assay type: functional, cell-based; set-up: mode of action Inhibitor, recommended concentration 1 uM
Adenosine kinase = Adenosine kinase (Homo sapiens, UniProt P55263); assay: Affinity On-target Cellular interaction: (Intact cell adenosine phosphorylation assay (radiochemical), IMR-32 human neuroblastoma cells) EUB0002485aCl ADK; assay type: functional, cell-based; set-up: mode of action Inhibitor, recommended concentration 1 uM
[9] = target: T4, Nuclear receptor ROR-beta (Homo sapiens, UniProt Q92753); assay: Affinity On-target Cellular interaction: (Reporter gene assay (HEK293T cells)) EUB0001161a RORB; assay type: functional, cell-based, HEK-293T; set-up: mode of action Antagonist, recommended concentration 10 uM
T4 sequence (Q92753 whole entry): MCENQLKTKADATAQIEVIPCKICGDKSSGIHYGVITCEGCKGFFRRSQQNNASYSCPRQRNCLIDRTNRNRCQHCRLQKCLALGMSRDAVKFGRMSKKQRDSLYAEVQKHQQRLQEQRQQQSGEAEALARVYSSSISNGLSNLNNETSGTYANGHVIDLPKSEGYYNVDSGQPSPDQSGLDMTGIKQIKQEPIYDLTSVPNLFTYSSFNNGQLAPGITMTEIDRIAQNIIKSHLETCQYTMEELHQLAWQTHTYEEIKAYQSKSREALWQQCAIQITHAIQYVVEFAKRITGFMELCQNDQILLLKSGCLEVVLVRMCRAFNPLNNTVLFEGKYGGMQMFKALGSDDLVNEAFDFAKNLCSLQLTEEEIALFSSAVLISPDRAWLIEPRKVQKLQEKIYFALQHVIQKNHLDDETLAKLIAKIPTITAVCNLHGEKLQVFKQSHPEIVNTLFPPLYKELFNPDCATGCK

[10] = target: Nuclear receptor subfamily 1 group D member 1 (Homo sapiens, UniProt P20393); assay: Affinity On-target Cellular interaction: (Reporter gene assay (HEK293T cells)) EUB0001153a NR1D1; assay type: functional, cell-based, HEK-293T; set-up: mode of action Antagonist, recommended concentration 10 uM
Bile acid receptor = Bile acid receptor (Homo sapiens, UniProt Q96RI1); assay: Affinity On-target Cellular interaction: (Reporter gene assay (HEK293T cells)) EUB0001168a NR1H4; assay type: functional, cell-based, HEK-293T; set-up: mode of action Agonist, recommended concentration 1 uM
[11] = target: T5, Nuclear receptor ROR-gamma (Homo sapiens, UniProt P51449)
T5 sequence (P51449 whole entry): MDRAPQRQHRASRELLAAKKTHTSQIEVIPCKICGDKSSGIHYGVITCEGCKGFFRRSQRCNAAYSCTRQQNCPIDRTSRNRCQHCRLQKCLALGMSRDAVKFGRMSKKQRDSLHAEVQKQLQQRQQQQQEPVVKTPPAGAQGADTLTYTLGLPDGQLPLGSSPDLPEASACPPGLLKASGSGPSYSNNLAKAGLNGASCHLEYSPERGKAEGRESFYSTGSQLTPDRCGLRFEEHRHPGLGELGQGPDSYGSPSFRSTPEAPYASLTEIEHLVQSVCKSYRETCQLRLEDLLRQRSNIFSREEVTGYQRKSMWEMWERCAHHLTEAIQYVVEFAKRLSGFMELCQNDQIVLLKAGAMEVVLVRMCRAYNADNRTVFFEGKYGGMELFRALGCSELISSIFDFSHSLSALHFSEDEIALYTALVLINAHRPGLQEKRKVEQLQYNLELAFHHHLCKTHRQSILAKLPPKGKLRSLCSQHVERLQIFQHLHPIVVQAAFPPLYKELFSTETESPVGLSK

T2 sequence (Q695T7 whole entry): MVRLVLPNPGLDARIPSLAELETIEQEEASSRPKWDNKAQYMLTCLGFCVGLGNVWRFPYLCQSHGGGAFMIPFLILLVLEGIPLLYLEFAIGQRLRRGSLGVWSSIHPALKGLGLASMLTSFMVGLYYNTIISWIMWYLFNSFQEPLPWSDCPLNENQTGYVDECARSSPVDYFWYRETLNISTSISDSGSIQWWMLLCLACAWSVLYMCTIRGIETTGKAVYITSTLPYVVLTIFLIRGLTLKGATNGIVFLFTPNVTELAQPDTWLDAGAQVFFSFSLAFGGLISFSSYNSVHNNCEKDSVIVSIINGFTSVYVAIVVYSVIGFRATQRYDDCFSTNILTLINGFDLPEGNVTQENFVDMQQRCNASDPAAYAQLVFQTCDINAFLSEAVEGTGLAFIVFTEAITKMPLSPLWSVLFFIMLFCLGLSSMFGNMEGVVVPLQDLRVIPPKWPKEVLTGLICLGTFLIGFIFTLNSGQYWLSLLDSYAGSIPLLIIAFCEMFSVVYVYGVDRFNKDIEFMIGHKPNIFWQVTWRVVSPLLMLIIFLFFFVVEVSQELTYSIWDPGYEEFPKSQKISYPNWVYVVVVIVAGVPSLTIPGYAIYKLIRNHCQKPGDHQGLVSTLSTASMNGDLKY
T1 sequence (O75469 whole entry): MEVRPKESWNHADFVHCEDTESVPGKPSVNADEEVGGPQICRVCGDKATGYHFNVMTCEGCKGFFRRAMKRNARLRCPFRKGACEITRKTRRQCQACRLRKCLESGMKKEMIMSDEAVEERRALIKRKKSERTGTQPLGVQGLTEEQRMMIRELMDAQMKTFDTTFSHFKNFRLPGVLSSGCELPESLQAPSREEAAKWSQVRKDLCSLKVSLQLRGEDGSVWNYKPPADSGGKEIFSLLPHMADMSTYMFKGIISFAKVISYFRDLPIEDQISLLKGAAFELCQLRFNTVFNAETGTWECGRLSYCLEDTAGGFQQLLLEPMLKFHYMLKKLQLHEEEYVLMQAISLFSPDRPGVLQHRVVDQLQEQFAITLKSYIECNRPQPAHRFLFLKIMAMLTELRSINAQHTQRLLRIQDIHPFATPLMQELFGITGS
Chain of Adenosine kinase (P55263 whole entry): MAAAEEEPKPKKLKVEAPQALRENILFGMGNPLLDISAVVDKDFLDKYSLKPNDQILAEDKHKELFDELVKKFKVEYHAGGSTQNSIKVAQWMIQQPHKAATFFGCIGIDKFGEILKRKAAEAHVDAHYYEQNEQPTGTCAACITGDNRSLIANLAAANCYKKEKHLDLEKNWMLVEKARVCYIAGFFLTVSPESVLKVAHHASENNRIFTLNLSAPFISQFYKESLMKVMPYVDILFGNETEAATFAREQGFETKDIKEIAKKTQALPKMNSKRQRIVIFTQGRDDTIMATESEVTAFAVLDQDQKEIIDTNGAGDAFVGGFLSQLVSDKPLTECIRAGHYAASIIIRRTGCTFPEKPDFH
Chain of Nuclear receptor subfamily 1 group D member 1 (P20393 whole entry): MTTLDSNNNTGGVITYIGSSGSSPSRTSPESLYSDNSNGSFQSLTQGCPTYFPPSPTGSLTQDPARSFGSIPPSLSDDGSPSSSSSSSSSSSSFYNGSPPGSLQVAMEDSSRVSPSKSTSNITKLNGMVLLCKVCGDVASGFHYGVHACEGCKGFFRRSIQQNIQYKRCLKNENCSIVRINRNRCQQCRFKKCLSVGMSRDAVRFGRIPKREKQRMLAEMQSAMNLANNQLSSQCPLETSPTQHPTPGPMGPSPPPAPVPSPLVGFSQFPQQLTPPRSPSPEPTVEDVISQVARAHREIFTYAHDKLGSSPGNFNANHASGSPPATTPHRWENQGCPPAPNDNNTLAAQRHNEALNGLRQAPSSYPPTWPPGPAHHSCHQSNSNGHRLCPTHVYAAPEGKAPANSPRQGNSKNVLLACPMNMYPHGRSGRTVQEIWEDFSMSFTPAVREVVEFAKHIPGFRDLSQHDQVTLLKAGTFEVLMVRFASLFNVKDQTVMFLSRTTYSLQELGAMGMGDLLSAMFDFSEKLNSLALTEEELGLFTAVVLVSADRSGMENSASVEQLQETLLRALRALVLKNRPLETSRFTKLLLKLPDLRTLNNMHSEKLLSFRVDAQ
Chain of Sodium- and chloride-dependent glycine transporter 1 (P48067 whole entry): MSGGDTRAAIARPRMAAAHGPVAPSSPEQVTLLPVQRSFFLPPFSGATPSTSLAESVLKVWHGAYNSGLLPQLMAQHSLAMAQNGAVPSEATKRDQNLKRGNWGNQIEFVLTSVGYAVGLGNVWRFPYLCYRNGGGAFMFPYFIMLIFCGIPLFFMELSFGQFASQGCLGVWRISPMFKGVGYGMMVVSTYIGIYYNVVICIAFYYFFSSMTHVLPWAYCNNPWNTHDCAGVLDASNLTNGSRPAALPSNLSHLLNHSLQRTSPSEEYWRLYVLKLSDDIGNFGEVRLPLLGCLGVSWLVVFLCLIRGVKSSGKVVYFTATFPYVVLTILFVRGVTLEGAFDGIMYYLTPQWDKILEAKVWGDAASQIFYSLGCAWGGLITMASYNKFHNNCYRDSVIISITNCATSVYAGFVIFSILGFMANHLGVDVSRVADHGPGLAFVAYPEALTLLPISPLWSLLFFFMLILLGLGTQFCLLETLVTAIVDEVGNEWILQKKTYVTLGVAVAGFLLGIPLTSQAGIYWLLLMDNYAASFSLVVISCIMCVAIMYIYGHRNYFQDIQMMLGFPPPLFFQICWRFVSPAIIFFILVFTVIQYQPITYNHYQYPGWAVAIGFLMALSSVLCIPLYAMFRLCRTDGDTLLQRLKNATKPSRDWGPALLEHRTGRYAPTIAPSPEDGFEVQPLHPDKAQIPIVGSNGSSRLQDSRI
Chain of Thyroid hormone receptor beta (P10828 whole entry): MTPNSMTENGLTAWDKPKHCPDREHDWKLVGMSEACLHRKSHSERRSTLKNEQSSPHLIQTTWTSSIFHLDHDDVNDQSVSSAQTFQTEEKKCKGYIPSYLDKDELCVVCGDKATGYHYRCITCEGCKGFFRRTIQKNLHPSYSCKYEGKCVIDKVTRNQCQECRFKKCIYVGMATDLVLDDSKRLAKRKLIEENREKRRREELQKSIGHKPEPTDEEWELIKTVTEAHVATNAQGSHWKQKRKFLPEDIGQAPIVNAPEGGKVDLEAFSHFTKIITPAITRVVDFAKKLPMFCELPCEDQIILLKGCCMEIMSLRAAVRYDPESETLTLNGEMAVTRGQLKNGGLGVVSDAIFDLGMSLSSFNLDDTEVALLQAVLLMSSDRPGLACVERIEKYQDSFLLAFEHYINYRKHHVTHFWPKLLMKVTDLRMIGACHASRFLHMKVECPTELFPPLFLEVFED
Chain of Monoacylglycerol lipase ABHD6 (Q9BV23 whole entry): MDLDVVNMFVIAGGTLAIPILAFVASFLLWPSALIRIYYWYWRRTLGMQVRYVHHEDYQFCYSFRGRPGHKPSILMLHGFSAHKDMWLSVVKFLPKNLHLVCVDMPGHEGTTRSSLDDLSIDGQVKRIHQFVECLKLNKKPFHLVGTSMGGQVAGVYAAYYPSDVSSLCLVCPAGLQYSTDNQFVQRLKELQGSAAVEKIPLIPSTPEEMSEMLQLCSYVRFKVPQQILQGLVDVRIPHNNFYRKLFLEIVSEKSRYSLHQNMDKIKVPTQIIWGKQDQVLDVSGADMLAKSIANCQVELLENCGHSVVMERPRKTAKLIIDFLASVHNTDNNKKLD
Chain of Bile acid receptor (Q96RI1 whole entry): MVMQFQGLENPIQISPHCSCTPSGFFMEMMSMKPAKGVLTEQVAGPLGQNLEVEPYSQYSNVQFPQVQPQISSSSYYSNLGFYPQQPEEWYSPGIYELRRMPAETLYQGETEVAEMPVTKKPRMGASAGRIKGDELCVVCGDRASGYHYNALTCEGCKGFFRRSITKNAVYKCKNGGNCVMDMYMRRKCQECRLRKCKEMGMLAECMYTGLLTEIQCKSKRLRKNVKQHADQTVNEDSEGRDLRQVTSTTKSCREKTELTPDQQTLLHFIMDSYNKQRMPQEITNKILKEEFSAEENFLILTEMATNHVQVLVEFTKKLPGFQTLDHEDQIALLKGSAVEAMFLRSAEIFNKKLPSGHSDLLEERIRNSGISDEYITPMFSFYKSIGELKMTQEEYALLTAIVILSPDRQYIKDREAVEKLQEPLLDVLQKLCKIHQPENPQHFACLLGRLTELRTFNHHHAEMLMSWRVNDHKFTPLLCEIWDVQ

SMILES: Cc1oc2ccccc2c1Cc1cc(I)c(OCC(=O)O)c(I)c1
pIC50 [1]: 5.70

SMILES: O=C(c1cccc(-c2ccc(-c3cn(C(=O)N4CCCCC4c4ccccc4)nn3)cc2)c1)N1CCCCC1 (stereo not drawn)
pIC50 [2]: 9.68

SMILES: CC(C)c1c(CN(C)C(C)Cc2ccccc2)n(C)n(-c2ccccc2)c1=O (stereo not drawn) [FAMPROFAZONE]
pEC50 [3]: 6.89

SMILES: CCNC(=O)/C=C/c1cccc(Br)c1 [CINROMIDE]
pIC50 [4]: 6.55
pIC50 [5]: 6.43

SMILES: CCOC(=O)C1Cc2ccccc2CN1C(=O)c1ccc(SC)s1 (stereo not drawn)
pIC50 [10]: 6.33

SMILES: O=C(O)c1ccnc(N2CC(O)(c3ccc(OCc4c(-c5c(Cl)cccc5Cl)noc4C4CC4)cc3Cl)C2)c1 [CILOFEXOR]
pEC50 (Bile acid receptor): 7.40

SMILES: O=C(Nc1ccc(C(O)(C(F)(F)F)C(F)(F)F)cc1)c1ccc(C(F)(F)F)cc1
pEC50 [11]: 5.70

The remaining lines, values ahead:

pEC50 [6]: 9.00
SMILES: CC(=O)Oc1ccc2c(c1)[C@@]1(C)CCC[C@](C)(C(=O)OC(=O)[C@@]3(C)CCC[C@]4(C)c5cc(OC(C)=O)ccc5CC[C@@H]34)[C@@H]1CC2 [ACETYL PODOCARPIC ACID ANHYDRIDE]

pEC50 [7]: 5.22
SMILES: O=c1[nH]c2ccccc2n1CCCN1CCN(C(c2ccccc2)c2ccccc2)CC1 [OXATOMIDE]

pIC50 [8]: 8.30
SMILES: C[C@@H](Oc1ccc(S(C)(=O)=O)cc1C(=O)N1C[C@@H]2C[C@]2(c2cc(C(F)(F)F)on2)C1)C(F)(F)F [ICLEPERTIN]

pIC50 (Adenosine kinase): 7.29
SMILES: Nc1ncnc2nc(-c3ccc(N4CCOCC4)nc3)cc(-c3cccc(Br)c3)c12

pIC50 [9]: 5.89
SMILES: COc1cc(O)c(C(CC(=O)N2C[C@H](C)C[C@H](C)C2)c2ccc3c(c2)OCO3)c(OC)c1 (stereo partly drawn)
